Assay results published in ChEMBL document CHEMBL3885881, “DrugMatrix”.

Species: Rattus norvegicus
Experiment: DrugMatrix - Regimen: Daily Repeat
Type: toxicity, organism-based, Sprague-Dawley
Design: regimen Daily Repeat, gender Male, age 6-8 weeks
Conditions: in vivo, po, route oral GAVAGE, vehicle .5 % CMC; for ABSOLUTE BASOPHIL / ABSOLUTE EOSINOPHIL / ABSOLUTE LYMPHOCYTE / ABSOLUTE MONOCYTE / ABSOLUTE SEGMENTED NEUTROPHIL / BASOPHIL / EOSINOPHIL / ERYTHROCYTE COUNT / HEMATOCRIT / HEMOGLOBIN / LEUKOCYTE COUNT / LYMPHOCYTE / MEAN CORPUSCULAR HEMOGLOBIN / MEAN CORPUSCULAR HEMOGLOBIN CONCENTRATION / MEAN CORPUSCULAR VOLUME / MONOCYTE / NEUTROPHIL / NUCLEATED RED BLOOD CELLS / PLATELET COUNT: tissue Blood; for ALANINE AMINOTRANSFERASE / ALBUMIN / ALKALINE PHOSPHATASE / ASPARTATE AMINOTRANSFERASE / BLOOD UREA NITROGEN / CARBON DIOXIDE / CHLORIDE / CHOLESTEROL / CREATINE PHOSPHOKINASE / CREATININE / GLUCOSE / LACTATE DEHYDROGENASE / LIPASE / PHOSPHORUS / POTASSIUM / SODIUM / TOTAL BILIRUBIN / TOTAL PROTEIN / URIC ACID: tissue Plasma
[1] = 0.3 mg/kg, 72 h, dose level Low, time 3 day
[2] = 0.3 mg/kg, 120 h, dose level Low, time 5 day
[3] = 5 mg/kg, 72 h, dose level High, time 3 day
[4] = 5 mg/kg, 120 h, dose level High, time 5 day

With `Nc1c(CC(=O)O)cccc1C(=O)c1ccc(Br)cc1` [BROMFENAC] the “ABSOLUTE BASOPHIL” value [1] was 0 CELLS/uL, the “ABSOLUTE EOSINOPHIL” value [1] was 0 CELLS/uL and the “ABSOLUTE LYMPHOCYTE” value [1] was 8435.67 CELLS/uL. For the same compound, the “ABSOLUTE MONOCYTE” value [1] was 96.67 CELLS/uL, the “ABSOLUTE SEGMENTED NEUTROPHIL” value [1] was 1134.33 CELLS/uL and the BASOPHIL [1] was 0%. The EOSINOPHIL [1] was 0%, the “ERYTHROCYTE COUNT” value [1] was 5.55 x10E6/uL and the HEMATOCRIT [1] was 35.1%. The HEMOGLOBIN [1] was 13.07 G/DL, the “LEUKOCYTE COUNT” value [1] was 9.67 x10E3/uL and the LYMPHOCYTE [1] was 88%. The “MEAN CORPUSCULAR HEMOGLOBIN” value [1] was 23.57 pg, the “MEAN CORPUSCULAR HEMOGLOBIN CONCENTRATION” value [1] was 37.2 G/DL and the “MEAN CORPUSCULAR VOLUME” value [1] was 63.33 fL. For the same compound, the MONOCYTE [1] was 1%, the NEUTROPHIL [1] was 11% and the “NUCLEATED RED BLOOD CELLS” value [1] was 0 /100WBC. For the same compound, the “PLATELET COUNT” value [1] was 1028.33 x10E3/uL, the “ALANINE AMINOTRANSFERASE” value [1] was 48.33 u/L and the ALBUMIN [1] was 4.43 G/DL. The “ALKALINE PHOSPHATASE” value [1] was 514.33 u/L, the “ASPARTATE AMINOTRANSFERASE” value [1] was 96 u/L and the “BLOOD UREA NITROGEN” value [1] was 15.67 mg/dL. The “CARBON DIOXIDE” value [1] was 31.33 mmol/L, the CHLORIDE [1] was 101.5 MEQ/L and the CHOLESTEROL [1] was 68.67 mg/dL. The “CREATINE PHOSPHOKINASE” value [1] was 316.33 u/L, the CREATININE [1] was 0.23 mg/dL and the GLUCOSE [1] was 142 mg/dL. For the same compound, the “LACTATE DEHYDROGENASE” value [1] was 121.67 u/L, the LIPASE [1] was 9.67 u/L and the PHOSPHORUS [1] was 11.03 mg/dL. For the same compound, the POTASSIUM [1] was 5.91 MEQ/L, the SODIUM [1] was 144.65 MEQ/L and the “TOTAL BILIRUBIN” value [1] was 0.1 mg/dL. The “TOTAL PROTEIN” value [1] was 6.13 G/DL, the “URIC ACID” value [1] was 0.67 mg/dL and the “ABSOLUTE BASOPHIL” value [2] was 0 CELLS/uL. For the same compound, the “ABSOLUTE EOSINOPHIL” value [2] was 0 CELLS/uL, the “ABSOLUTE LYMPHOCYTE” value [2] was 10092.67 CELLS/uL and the “ABSOLUTE MONOCYTE” value [2] was 194 CELLS/uL. The “ABSOLUTE SEGMENTED NEUTROPHIL” value [2] was 1180 CELLS/uL, the BASOPHIL [2] was 0% and the EOSINOPHIL [2] was 0%. For the same compound, the “ERYTHROCYTE COUNT” value [2] was 5.77 x10E6/uL, the HEMATOCRIT [2] was 37.27% and the HEMOGLOBIN [2] was 13.97 G/DL. The “LEUKOCYTE COUNT” value [2] was 11.47 x10E3/uL, the LYMPHOCYTE [2] was 87.33% and the “MEAN CORPUSCULAR HEMOGLOBIN” value [2] was 24.17 pg. The “MEAN CORPUSCULAR HEMOGLOBIN CONCENTRATION” value [2] was 37.5 G/DL, the “MEAN CORPUSCULAR VOLUME” value [2] was 64.5 fL and the MONOCYTE [2] was 1.33%. The NEUTROPHIL [2] was 11.33%, the “NUCLEATED RED BLOOD CELLS” value [2] was 0 /100WBC and the “PLATELET COUNT” value [2] was 1201.33 x10E3/uL. For the same compound, the “ALANINE AMINOTRANSFERASE” value [2] was 48.67 u/L, the ALBUMIN [2] was 4.57 G/DL and the “ALKALINE PHOSPHATASE” value [2] was 385 u/L. The “ASPARTATE AMINOTRANSFERASE” value [2] was 86.33 u/L, the “BLOOD UREA NITROGEN” value [2] was 15.67 mg/dL and the “CARBON DIOXIDE” value [2] was 35.33 mmol/L. The CHLORIDE [2] was 99.67 MEQ/L, the CHOLESTEROL [2] was 83.67 mg/dL and the “CREATINE PHOSPHOKINASE” value [2] was 586 u/L. The CREATININE [2] was 0.2 mg/dL, the GLUCOSE [2] was 151 mg/dL and the “LACTATE DEHYDROGENASE” value [2] was 148.33 u/L. The LIPASE [2] was 9.33 u/L, the PHOSPHORUS [2] was 10.9 mg/dL and the POTASSIUM [2] was 6.38 MEQ/L. For the same compound, the SODIUM [2] was 143.9 MEQ/L, the “TOTAL BILIRUBIN” value [2] was 0.2 mg/dL and the “TOTAL PROTEIN” value [2] was 6.77 G/DL. For the same compound, the “URIC ACID” value [2] was 0.8 mg/dL, the “ABSOLUTE BASOPHIL” value [3] was 0 CELLS/uL and the “ABSOLUTE EOSINOPHIL” value [3] was 0 CELLS/uL. For the same compound, the “ABSOLUTE LYMPHOCYTE” value [3] was 5201.4 CELLS/uL, the “ABSOLUTE MONOCYTE” value [3] was 116 CELLS/uL and the “ABSOLUTE SEGMENTED NEUTROPHIL” value [3] was 1982.6 CELLS/uL. The BASOPHIL [3] was 0%, the EOSINOPHIL [3] was 0% and the “ERYTHROCYTE COUNT” value [3] was 4.97 x10E6/uL. The HEMATOCRIT [3] was 30.78%, the HEMOGLOBIN [3] was 11.8 G/DL and the “LEUKOCYTE COUNT” value [3] was 7.3 x10E3/uL. The LYMPHOCYTE [3] was 72.6%, the “MEAN CORPUSCULAR HEMOGLOBIN” value [3] was 23.92 pg and the “MEAN CORPUSCULAR HEMOGLOBIN CONCENTRATION” value [3] was 38.52 G/DL. The “MEAN CORPUSCULAR VOLUME” value [3] was 62.06 fL, the MONOCYTE [3] was 1.8% and the NEUTROPHIL [3] was 25.6%. For the same compound, the “NUCLEATED RED BLOOD CELLS” value [3] was 0 /100WBC, the “PLATELET COUNT” value [3] was 593.4 x10E3/uL and the “ALANINE AMINOTRANSFERASE” value [3] was 100 u/L. The ALBUMIN [3] was 3.64 G/DL, the “ALKALINE PHOSPHATASE” value [3] was 337.8 u/L and the “ASPARTATE AMINOTRANSFERASE” value [3] was 193.2 u/L. For the same compound, the “BLOOD UREA NITROGEN” value [3] was 10.2 mg/dL, the “CARBON DIOXIDE” value [3] was 31.2 mmol/L and the CHLORIDE [3] was 103.4 MEQ/L. The CHOLESTEROL [3] was 84.6 mg/dL, the “CREATINE PHOSPHOKINASE” value [3] was 304.4 u/L and the CREATININE [3] was 0.19 mg/dL. For the same compound, the GLUCOSE [3] was 147.4 mg/dL, the “LACTATE DEHYDROGENASE” value [3] was 116.6 u/L and the LIPASE [3] was 8.4 u/L. It also gave a PHOSPHORUS [3] of 11.14 mg/dL, a POTASSIUM [3] of 5.44 MEQ/L and an SODIUM [3] of 146.66 MEQ/L. The “TOTAL BILIRUBIN” value [3] was 0.14 mg/dL, the “TOTAL PROTEIN” value [3] was 5.36 G/DL and the “URIC ACID” value [3] was 0.76 mg/dL. The “ABSOLUTE BASOPHIL” value [4] was 0 CELLS/uL, the “ABSOLUTE EOSINOPHIL” value [4] was 23.5 CELLS/uL and the “ABSOLUTE LYMPHOCYTE” value [4] was 8259.25 CELLS/uL. The “ABSOLUTE MONOCYTE” value [4] was 191.75 CELLS/uL, the “ABSOLUTE SEGMENTED NEUTROPHIL” value [4] was 1625.5 CELLS/uL and the BASOPHIL [4] was 0%. The EOSINOPHIL [4] was 0.25%, the “ERYTHROCYTE COUNT” value [4] was 4.46 x10E6/uL and the HEMATOCRIT [4] was 28.57%. The HEMOGLOBIN [4] was 11 G/DL, the “LEUKOCYTE COUNT” value [4] was 10.1 x10E3/uL and the LYMPHOCYTE [4] was 81.75%. For the same compound, the “MEAN CORPUSCULAR HEMOGLOBIN” value [4] was 24.82 pg, the “MEAN CORPUSCULAR HEMOGLOBIN CONCENTRATION” value [4] was 38.55 G/DL and the “MEAN CORPUSCULAR VOLUME” value [4] was 64.3 fL. For the same compound, the MONOCYTE [4] was 2%, the NEUTROPHIL [4] was 16% and the “NUCLEATED RED BLOOD CELLS” value [4] was 0.5 /100WBC. The “PLATELET COUNT” value [4] was 1087.25 x10E3/uL, the “ALANINE AMINOTRANSFERASE” value [4] was 38.5 u/L and the ALBUMIN [4] was 3.65 G/DL. For the same compound, the “ALKALINE PHOSPHATASE” value [4] was 255.67 u/L, the “ASPARTATE AMINOTRANSFERASE” value [4] was 60 u/L and the “BLOOD UREA NITROGEN” value [4] was 13.75 mg/dL. For the same compound, the “CARBON DIOXIDE” value [4] was 31.5 mmol/L, the CHLORIDE [4] was 101.67 MEQ/L and the CHOLESTEROL [4] was 80.25 mg/dL. For the same compound, the “CREATINE PHOSPHOKINASE” value [4] was 189 u/L, the CREATININE [4] was 0.15 mg/dL and the GLUCOSE [4] was 141.25 mg/dL. The “LACTATE DEHYDROGENASE” value [4] was 82.25 u/L, the LIPASE [4] was 8.25 u/L and the PHOSPHORUS [4] was 10.7 mg/dL. For the same compound, the POTASSIUM [4] was 5.87 MEQ/L, the SODIUM [4] was 145.27 MEQ/L and the “TOTAL BILIRUBIN” value [4] was 0.13 mg/dL. For the same compound, the “TOTAL PROTEIN” value [4] was 5.8 G/DL and the “URIC ACID” value [4] was 0.57 mg/dL.
